Test results taken from patent publication US12325676B2, “Cationic lipid compound and composition for delivery of nucleic acids and use thereof” (Shenzhen Rhegen Biotechnology Co., Ltd., priority 2022, dated 2025).

How the values were obtained:
[1] = Encapsulation rate of mRNA-loaded lipid nanoparticles (Ribogreen kit); format: physicochemical
Experimental: Luciferase mRNA was diluted in 10-100 mM citrate buffer at pH 4.0; the lipid components (cationic lipids shown in the present disclosure: DSPC:cholesterol:PEG lipids (DMG-PEG2000)) were dissolved in ethanol at a molar ratio of 50:10:38.5:1.5.
3 mL of a mRNA buffer and 1 mL of a lipid solution were loaded into two 5 mL syringes respectively, and the syringes were installed on a microfluidic syringe pump. Chips were connected to the syringes and syringe pump flow rate was set. Clicking the start button of the syringe pump caused injection into the chip at a flow rate ratio of 3:1. Under observation of the color of the product at the exit of the chip, after discarding the first 5 milky white droplets (about 100 μL), the back-end sample was collected into an EP tube. The collected product was placed in a dialysis bag and dialyzed for 6 h (MWCO: 100 KDa) in 10 mM PBS (pH 7.4) intervals. Subsequently, after being concentrated by ultrafiltration to the desired concentration, the lipid nanoparticles were filtered through a 0.22 μm sterile filter and then stored at 4° C.
Tests were performed to calculate the encapsulation rate of the products according to the instructions of Ribogreen kit. Particle size and polydispersity index (PDI) detection as well as zeta potential analysis was performed on a Malvern Zetasizer nano instrument using standard assays.

[2] = test system: BALB/c mice; assay: In vivo expression of luciferase mRNA delivered by LNP, tail intravenous injection, small animal imaging; settings: Table 3, 5 μg mRNA, female BALB/c mice, DLin-MC3-DMA = 100
Experimental: LUC-mRNA-lipid nanoparticles containing 5 μg mRNA (see SEQ ID NO: 1 in the Patent Application Publication CN114380724A for the corresponding nucleotide sequence of LUC-mRNA) were injected via tail intravenous injection in 6-8 week old female BALB/c mice, prepared as in Example 19. 100 μg of D-Luciferin Potassium Salt was injected via tail intravenous injection into the mice at specific time points and assayed using the PerkinElmer Small Animal Imaging System. Fluc is commonly used in mammalian cell cultures to measure gene expression and cell viability, and it emits biological fluorescent light in the presence of the substrate […]. The basic characteristics of the mRNA used include ARCA cap structure, polyA tail length of 120 nt, and complete substitution of pseudouridine.
The effect of delivering luciferase mRNA using more cationic lipids were validated according to the methods of Example 20 and Example 21.

[3] = test system: BALB/c mice; assay: In vivo expression of luciferase mRNA delivered by LNP, lung nebulization; settings: LUC-mRNA LNP, 5 μg mRNA, compared with Lipid M and SM-102
Experimental: LUC-mRNA-lipid nanoparticles containing 5 μg mRNA were administrated via lung nebulization in 6-8 week old BALB/c mice, prepared as in Example 19. 100 μg of D-Luciferin Potassium Salt was injected via tail intravenous injection into the mice at specific time points and assayed using the PerkinElmer Small Animal Imaging System.

[4] = test system: BALB/c mice; assay: Novel coronavirus mRNA vaccine delivered by LNP, intramuscular immunization, binding antibody titer by ELISA; settings: mouse, in vivo
[5] = test system: BALB/c mice; assay: In vivo EPO protein expression after tail i.v. injection of EPO-mRNA LNP, serum ELISA; settings: 6 hours after tail i.v. injection of 20 μg EPO-mRNA-lipid nanoparticles, female Balb/c mice
Experimental: In the example, the effects of in vivo transfection of erythropoietin (EPO) by various cationic liposomes were compared. Nanoparticles were prepared in the same manner as in Example 20, and the nucleotide sequence corresponding to the EPO mRNA used is given in CN114380724B, SEQ ID NO:2. After preparation, 20 μg of EPO-mRNA-lipid nanoparticles were injected via tail intravenous injection in 6-8 week female Balb/c mice. 6 hours later the mice were subjected to blood sampling from the eye frame. After centrifugation to separate the serum, EPO protein expression was determined using ELISA. The basic characteristics of the mRNA used include ARCA cap structure, polyA tail length of 100-120 nt, and complete substitution of pseudouridine.

[6] = test system: C57BL6 mice; assay: Intratumoral injection of luciferase mRNA LNP, fluorescence of tumor and liver; format: in vivo; settings: luciferase mRNA LNP 25 μL/2.5 μg intratumoral, B 16F 10 tumor in C57BL6 mice, imaging after 24 h (FIGS. 6 and 7)
Experimental: Different types of lipid nanoparticles encapsulating luciferase mRNA in were prepared accordance with the preparation of Example 20. Tumors were injected subcutaneously in the right abdomen of 6-8 week female C57BL6 mice at 5×10^5 B 16F 10 cells (from CAS Cell Bank, CSTR:19375.09.3101MOUTCM36)/mouse, and tumor growth was observed and recorded periodically. On the 8th day after tumor inoculation, the length (L, mm) and width (D, mm) of the tumors were measured by using a vernier caliper, and the tumor volume (V) was calculated according to the formula V=(L×D^2)/2. Mice with tumor volume in the range of 80-120 mm^3 were taken and randomly grouped, and intratumorally injected with different types of lipid nanoparticles encapsulating luciferase mRNA at the volume of 25 μL/2.5 μg. Anatomical imaging was performed after 24 h to detect the fluorescence intensity of the mouse liver and tumor (as shown in FIGS. 6 and 7). […] This indicates better in situ tumor expression and lower liver […], which is suitable for encapsulation and delivery of some tumor therapy-related nucleic acid drugs.

[7] = Encapsulation rate of mRNA-loaded lipid nanoparticles (Ribogreen kit); format: physicochemical; remark: listed apart in the source
[8] = Particle size, PDI and zeta potential of mRNA-loaded lipid nanoparticles (Malvern Zetasizer nano); format: physicochemical
[9] = Table 2 No. 1, Luc mRNA LNP, Compound 35/DMG-PEG2000/DSPC/cholesterol 55/2.5/22/20.5 molar, N/P 5
[10] = Table 2 No. 2, Luc mRNA LNP, Compound 35/DMG-PEG2000/DSPC/cholesterol 45/1.5/22/31.5 molar, N/P 10
[11] = Table 2 No. 3, Luc mRNA LNP, Compound 35/DMG-PEG2000/DSPC/cholesterol 45/2.5/8/44.5 molar, N/P 5
[12] = Table 2 No. 4, Luc mRNA LNP, Compound 35/DMG-PEG2000/DSPC/cholesterol 45/1.5/8/45.5 molar, N/P 10
[13] = Table 2 No. 5, Luc mRNA LNP, Compound 35/DMG-PEG2000/DSPC/cholesterol 50/1.5/15/33.5 molar, N/P 7.5
[14] = Table 2 No. 6, Luc mRNA LNP, Compound 35/DMG-PEG2000/DSPC/cholesterol 55/1.5/15/28.5 molar, N/P 10
[15] = Table 2 No. 7, Luc mRNA LNP, Compound 35/DMG-PEG2000/DOPE/cholesterol 55/2.5/22/20.5 molar, N/P 5
[16] = Table 2 No. 8, Luc mRNA LNP, Compound 35/DMG-PEG2000/DOPE/cholesterol 45/1.5/22/31.5 molar, N/P 10
[17] = Table 2 No. 9, Luc mRNA LNP, Compound 35/DMG-PEG2000/DOPE/cholesterol 45/2.5/8/44.5 molar, N/P 5
[18] = Table 2 No. 10, Luc mRNA LNP, Compound 35/DMG-PEG2000/DOPE/cholesterol 45/1.5/8/45.5 molar, N/P 10
[19] = Table 2 No. 11, Luc mRNA LNP, Compound 35/DMG-PEG2000/DOPE/cholesterol 50/1.5/15/33.5 molar, N/P 7.5
[20] = Table 2 No. 12, Luc mRNA LNP, Compound 35/DMG-PEG2000/DOPE/cholesterol 55/1.5/15/28.5 molar, N/P 10
[21] = Table 4 batch, EPO mRNA LNP prepared as Example 20

With `CCCCCCCCSCC(C)C(=O)OCCCCCN(CCO)CCCCCCCC(=O)OC(CCCCCCCC)CCCCCCCC` (centres unmarked) [Compound 35] the “Encapsulation rate (%)” value ([1]; Table 1, Luciferase mRNA LNP, cationic lipid:DSPC:cholesterol:DMG-PEG2000 50:10:38.5:1.5 molar) was 90.4%, the “Encapsulation rate (%)” value ([1]; Table 3 batch, luciferase mRNA LNP prepared as Example 20) was 96.2% and the “relative fluorescence intensity (%)” value [2] was 962 ± 78%. For the same molecule, the “fluorescent levels of mRNA expression (FIG. 2)” value [3] was “superior to Lipid M and SM-102”, the binding antibody titer [4] was 1.4 million and the “EPO concentration” value [5] was 5.73e+07 pg/mL. For the same molecule, the “brightness (fluorescence intensity) at the tumor” value [6] was “higher brightness at the tumor”, the “brightness (fluorescence intensity) in the liver” value [6] was “lower brightness in the liver” and the “Encapsulation rate (%)” value [7, 9] was 85.78%. The “Encapsulation rate (%)” value [7, 10] was 96.98%, the “Encapsulation rate (%)” value [7, 11] was 97.38% and the “Encapsulation rate (%)” value [7, 12] was 96.70%. The “Encapsulation rate (%)” value [7, 13] was 96.10%, the “Encapsulation rate (%)” value [7, 14] was 94.46% and the “Encapsulation rate (%)” value [7, 15] was 90.26%. For the same molecule, the “Encapsulation rate (%)” value [7, 16] was 94.11%, the “Encapsulation rate (%)” value [7, 17] was 94.62% and the “Encapsulation rate (%)” value [7, 18] was 96.36%. For the same molecule, the “Encapsulation rate (%)” value [7, 19] was 92.54%, the “Encapsulation rate (%)” value [7, 20] was 96.16% and the “Encapsulation rate (%)” value [7, 21] was 96.1%. The PDI [8, 9] was 0.193, the “Particle size (nm)” value [8, 9] was 100.5 nm and the PDI [8, 10] was 0.121. For the same molecule, the “Particle size (nm)” value [8, 10] was 98.13 nm, the PDI [8, 11] was 0.138 and the “Particle size (nm)” value [8, 11] was 70.02 nm. For the same molecule, the PDI [8, 12] was 0.121, the “Particle size (nm)” value [8, 12] was 98.19 nm and the PDI [8, 13] was 0.051. The “Particle size (nm)” value [8, 13] was 85.09 nm, the PDI [8, 14] was 0.122 and the “Particle size (nm)” value [8, 14] was 93.83 nm. The PDI [8, 15] was 0.169, the “Particle size (nm)” value [8, 15] was 145.0 nm and the PDI [8, 16] was 0.205. For the same molecule, the “Particle size (nm)” value [8, 16] was 114.9 nm, the PDI [8, 17] was 0.173 and the “Particle size (nm)” value [8, 17] was 92.41 nm. For the same molecule, the PDI [8, 18] was 0.233, the “Particle size (nm)” value [8, 18] was 113.7 nm and the PDI [8, 19] was 0.155. The “Particle size (nm)” value [8, 19] was 140.2 nm, the PDI [8, 20] was 0.190 and the “Particle size (nm)” value [8, 20] was 129.1 nm. For the same molecule, the PDI [8, 21] was 0.12 and the “Particle size (nm)” value [8, 21] was 79.1 nm.
